In ChEMBL document CHEMBL3507680, “University of Dundee, Gates Library screen for HepG2 cell viability” one finds cytotoxicity data, which are given here for 39 molecules.

The data set is described as follows: Human HepG2 cell viability assay in 384 well format. The settings on record: HepG2 cells, read-out: Inhibition. More on the design: dose 125 nL, time 70.5 hour; cytotoxicity at 70.5 h: concentration not given beside the values. Type of data set: toxicity, cell-based.
As for `COc1cccc(-n2cc(-c3ccnc(N[C@H](CO)C(C)C)n3)cn2)c1`, the cytotoxicity at 70.5 h is -2.44%.

As for `Cc1nc2cc(CNC(=O)C3CC(=O)N(C4CCCC4)C3)ccc2n1C` (centres undefined), the cytotoxicity at 70.5 h is -7.58%.

As to `CN(Cc1ccsc1)C(=O)C1CCC(=O)N(Cc2ccccn2)C1` (centres undefined), the cytotoxicity at 70.5 h was -5.03%.

Turning to `CCC(C(=O)N(C)C)N1CCC(c2nccn2Cc2cscn2)CC1` (centres undefined), the cytotoxicity at 70.5 h is -10%.

`COCc1nc(N(C)C/C=C/c2ccccc2)c2cnn(C)c2n1`: the cytotoxicity at 70.5 h is -8.43%.

On to `CCCOCCN1CCN(c2ncnc3[nH]ccc23)CC1`, for which the cytotoxicity at 70.5 h stood at 1.69%.

Turning to `OC[C@@H]1CCCN1c1ccc(-c2nc(CCc3ccccc3)no2)cn1`, the cytotoxicity at 70.5 h is -4.61%.

Turning to `COCC(C)NCc1nc(-c2ccc(C)cc2)c(-c2ccccn2)[nH]1` (centres undefined), the cytotoxicity at 70.5 h was -1.81%.

Consider `O=C(NCCCOc1cccnc1)c1cn(Cc2ccccc2F)nn1`, for which the cytotoxicity at 70.5 h was -12.2%.

On to `CCc1csc(CNC2CCN(c3ccc(C)cc3)CC2)n1`, for which the cytotoxicity at 70.5 h came out at 2.12%.

With `Cc1ccc(CNC(=O)CC2C(=O)NCCN2Cc2ccccc2C)s1` (centres undefined), the cytotoxicity at 70.5 h was -0.0744%.

In the case of `Cn1ccnc1CN(CCO)Cc1ccc(C(F)(F)F)cc1`, the cytotoxicity at 70.5 h is -6.45%.

`Cc1noc(-c2ccc(N(C)Cc3nccs3)nc2)n1`: the cytotoxicity at 70.5 h is -9.04%.

In the case of `CNS(=O)(=O)CCn1cc(-c2ccc(OC)c(OC)c2)nn1`, the cytotoxicity at 70.5 h is -4.16%.

Take `Cc1ccccc1-n1cc(CNc2ncnc3c2CCNCC3)cn1`: the cytotoxicity at 70.5 h is -13.6%.

For `Cc1nc(N(C)C)ncc1C(=O)NCCc1csc(-c2ccncc2)n1`, the cytotoxicity at 70.5 h is -12.4%.

Take `CCc1cc(N[C@H](C(N)=O)[C@@H](C)CC)n2nccc2n1`: the cytotoxicity at 70.5 h was -1.65%.

In the case of `CCCc1nnc(NC2CCN(C3CCCC3)CC2)o1`, the cytotoxicity at 70.5 h was -12.5%.

`COCc1ncc(CN2CCN(C)C(=O)C2C)cn1` (centres undefined): the cytotoxicity at 70.5 h was -13.5%.

As to `Cc1cc(CN(C)C2CCN(c3cccc(-c4cscn4)c3)CC2)on1`, the cytotoxicity at 70.5 h is -2.57%.

As to `COCCN(C)C(C(=O)O)c1ccc(C)c(C)c1` (centres undefined), the cytotoxicity at 70.5 h turned out to be 0.276%.

For `CC[C@@H](CO)NC(=O)c1cccc(CCC(C)(C)O)c1`, the cytotoxicity at 70.5 h is -6.14%.

As for `Cc1ccc2c(-c3nc4c([nH]3)CCNC4C(=O)O)cccc2n1` (centres undefined), the cytotoxicity at 70.5 h is -0.899%.

Turning to `CNC(=O)C1CCN(c2nccc(CCC(F)(F)F)n2)C1` (centres undefined), the cytotoxicity at 70.5 h is -3.72%.

As for `O=C(O)c1ccccc1C1CCN(C2CCN(c3ccccc3)CC2)C1` (centres undefined), the cytotoxicity at 70.5 h was found to be 0.408%.

For `CC(=O)Nn1c(C)cc(CN2CCC(C(=O)N3CCCC3)CC2)c1C`, the cytotoxicity at 70.5 h was -2.42%.

As for `CC(C)N1CCCC(C(=O)N2CCN(c3nsc4ccccc34)CC2)C1` (centres undefined), the cytotoxicity at 70.5 h was 1.52%.

As to `Cc1nc[nH]c1-c1c(-c2ccccc2)ncn1C1CCNC1` (centres undefined), the cytotoxicity at 70.5 h was -1.75%.

`O=C(c1cnc(O)cn1)N1CCCC1c1nc2cc(F)ccc2[nH]1` (centres undefined): the cytotoxicity at 70.5 h was -4.45%.

For the molecule `COCc1ccc(C(=O)N2CCN(CC=C(C)C)[C@@H]3CS(=O)(=O)C[C@@H]32)o1`, the cytotoxicity at 70.5 h is -0.472%.

As to `CCCn1cc(-c2cc(-c3cnc(OC)nc3)c(C#N)c(N)n2)c(C)n1`, the cytotoxicity at 70.5 h was -7.45%.

Regarding `CN(Cc1nccs1)C1CCN(c2ncccn2)CC1`, the cytotoxicity at 70.5 h is -8.38%.

Turning to `CCC(Nc1nc(C)nc2onc(C)c12)c1nc(C)c(C)s1` (centres undefined), the cytotoxicity at 70.5 h came to 24.7%.

As for `CSC(C)CCN1CCC(n2cc(C3CCCCC3)nn2)CC1` (centres undefined), the cytotoxicity at 70.5 h was -1.37%.

Regarding `c1cncc(OCCCNC2COc3ccccc3C2)c1` (centres undefined), the cytotoxicity at 70.5 h is -3.91%.

On to `Cc1cccnc1[C@H](C)NC(=O)c1cccc(CC2CCNCC2)c1`, for which the cytotoxicity at 70.5 h is 0.55%.

With `CCN(CC)C(=O)[C@@H]1C[C@@H](NC(=O)c2ccoc2)CN1C`, the cytotoxicity at 70.5 h is 25.9%.

As to `Cn1ccc(NC(=O)CN2C[C@H]3CC[C@@H]2CN(S(C)(=O)=O)C3)n1`, the cytotoxicity at 70.5 h is 0.433%.

As for `COCc1ncn(Cc2nc(-c3ccc(OC)c(OC)c3)oc2C)n1`, the cytotoxicity at 70.5 h amounted to 27.5%.
